“Also recorded” adds a separate entry of the source.
Tests used:
[1] = system: total erythroid progenitors (BFU-E+CFU-E); assay: Inhibition of succinylacetone (SA) toxicity to erythroid progenitors in CFA; format: cell-based, human; settings: 0.5 mM SA; 100 μM hemin, 15.6 μM HAo or HEMOLINK, 250 μM FeCl3; ambient O2, 14 days
Protocol: The effect of the various additives on the inhibitory effect of succinylacetone (SA), a heme synthesis inhibitor, on erythroid progenitors was determined. Primary LDMNC were cultured in methyl cellulose as described in Example 1. Cord blood LDMN were plated in the presence of 1.0 mg/ml HAo (15.6 μM; n=12) or HEMOLINK™ (15.6 μM; n=5), 100 μM hemin (n=12), 250 μM FeCl3 (n=11) or no addition (n=12), in absence or presence of 0.5 mM SA. Cultures were maintained in a humidified chamber at 37° C., 5% CO2, and ambient oxygen tensions for 14 days.
Results are expressed as the number of total erythroid progenitors (BFU-E+CFU-E) present on plates treated with the various additives in the presence of SA relative to the number present on untreated plates (no SA or other addition). Significant differences in the presence of the respective additives compared to no addition (SA only; relative progenitor number=0.31) are as indicated: *p<0.001, **p<0.0001. Significant differences in the presence of the respective additives compared to no treatment (no SA; solid line at relative erythroid progenitor number=1.0) are as indicated: +p<0.05, ++p<0.001.

BFU-E = assay: Colony formation assay, adult peripheral blood LDMNC: BFU-E; format: cell-based, human; settings: for fold increase in BFU-E, adult blood, 0.2 U/ml Epo: ~20% O2, compared to untreated controls (no addition) at 0.2 U/ml Epo
Protocol: Blood was collected with informed consent from the antecubital vein of healthy adult human volunteers into vacutainers containing 143 USP U/ml sodium heparin. Low density mononuclear cells (LDMNC) were isolated by centrifugation over a density gradient as described in Example 1. Plastic adherent cells were removed by an overnight incubation in a tissue culture flask and the non-adherent cells were placed directly in a CFA. Conditions for the CFA are similar to those described in Examples 1-4.
The mean fold increase in adult blood BFU-E, CFU-E and CFU-GM progenitor number produced by 1.0 mg/ml HAo (15.6 μM) or HEMOLINK™ (15.6 μM), 100 μM hemin or 250 μM FeCl3 is shown in FIG. 9 (n=3). Cultures were maintained at ambient oxygen tensions (˜20% O2) for 14 days. The fold increase in colonies is expressed relative to control cells treated only with the respective vehicles. […] The magnitude of this increase was greater for adult than cord blood LDMNC.
The mean fold increase in adult blood BFU-E, CFU-E and CFU-GM progenitor number at 5% O2 is shown in FIG. 10 with the same additives. Results are expressed relative to control cells treated only with the respective vehicles and cultured at ambient oxygen tensions (˜20% O2). Reduced oxygen tensions (5% O)2 enhanced the growth of BFU-E which was further increased by the addition of HAo, HEMOLINK™, hemin or FeCl3. All agents stimulated a similar increase in BFU-E number (˜9-11-fold) at 5% O2 compared to untreated control cells at ambient oxygen tensions.
Mean fold increase in adult blood BFU-E, CFU-E and CFU-GM progenitor number in the presence of reduced Epo (0.2 U/ml) (n=3) at 20% O2 is shown in FIG. 11 with and without (no addition) the additives used in FIG. 9. Results are expressed relative to control cells at 2 U/ml Epo treated only with the respective vehicles (solid line at fold expansion=1.0). […] As with cord blood, CFU-GM numbers were unaffected by reductions in Epo. The addition of HAo or HEMOLINK™ to CFAs containing 0.2 U/ml Epo stimulated ˜4.5- and ˜3.5-fold increases in BFU-E and CFU-E, respectively, compared to untreated controls (no addition), restoring the progenitor number to that obtained at 2 U/ml Epo. Hemin stimulated the greatest increase in BFU-E and CFU-E (˜9- and ˜6-fold, respectively) at 0.2 U/ml Epo versus the untreated controls (no addition). FeCl3 stimulated only a ˜2-fold increase in erythroid progenitor number at 0.2 U/ml Epo.
Mean fold increase in adult blood BFU-E, CFU-E and CFU-GM progenitor number at 5% O2 in the presence of reduced Epo (0.2 U/ml) (n=3) is shown in FIG. 12 with and without the additives used in FIG. 9. […]

| Molecule | reversal of inhibitory effect of SA on erythroid progenitors (in words) [1] | fold increase in BFU-E, adult blood, ambient O2 (BFU-E; 2 U/ml Epo, ambient O2, 1.0 mg/ml HAo or HEMOLINK, 100 μM hemin, 250 μM FeCl3, vs vehicle controls) [fold] | fold increase in BFU-E, adult blood, 0.2 U/ml Epo (BFU-E) [fold] |
| --- | --- | --- | --- |
| [Cl][Fe]([Cl])[Cl] [FeCl3] | less effective than lower concentrations of hemoglobin; also recorded: unable to overcome the inhibitory effect of SA | < 3 |  |
| C=CC1=C(C)C2=Cc3c(C=C)c(C)c4[n]3[Fe-2]35([Cl])[n]6c(c(C)c(CCC(=O)O)c6=CC6=[N+]3C(=C4)C(C)=C6CCC(=O)O)=CC1=[N+]25 [hemin] | able to completely overcome the SA inhibition of erythroid colonies; also recorded: able to overcome the inhibitory effect of SA |  | ~9 |
| HAo: adult human hemoglobin obtained from red blood cells and purified by displacement chromatography; uncross linked product | partially able to overcome the inhibitory effect of SA; also recorded: could partially reverse the SA toxicity |  | ~4.5 |
| HEMOLINK™: chemically crosslinked hemoglobin prepared by treating human hemoglobin with a polyaldehyde (O-raffinose) | unable to fully restore erythroid progenitor numbers |  | ~4.5 |
